The target in the experiment is T1, Aromatase (Homo sapiens, UniProt P11511).
T1 sequence (P11511 whole entry): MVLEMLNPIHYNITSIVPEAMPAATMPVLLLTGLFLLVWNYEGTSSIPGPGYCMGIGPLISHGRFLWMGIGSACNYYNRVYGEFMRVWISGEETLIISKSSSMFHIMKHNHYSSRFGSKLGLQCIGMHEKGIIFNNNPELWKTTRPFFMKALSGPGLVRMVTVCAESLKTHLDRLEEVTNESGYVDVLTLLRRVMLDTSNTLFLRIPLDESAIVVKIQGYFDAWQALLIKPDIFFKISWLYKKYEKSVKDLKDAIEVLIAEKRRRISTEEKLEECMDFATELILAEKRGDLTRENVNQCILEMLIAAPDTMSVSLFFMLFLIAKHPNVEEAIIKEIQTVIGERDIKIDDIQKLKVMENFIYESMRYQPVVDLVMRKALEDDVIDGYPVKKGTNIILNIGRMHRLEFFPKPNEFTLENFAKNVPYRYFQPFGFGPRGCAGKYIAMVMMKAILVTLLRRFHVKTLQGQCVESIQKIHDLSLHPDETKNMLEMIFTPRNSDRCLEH

Results on 15 molecules are retold here after ChEMBL document CHEMBL2440092, “Investigation of aryl halides as ketone bioisosteres: refinement of potent and selective inhibitors of human cytochrome P450 19A1 (aromatase)” (Bioorg Med Chem Lett, 2013).

Structures are written as SMILES.

Description: Inhibition of recombinant human aromatase using O-dibenzylfluorescein benzyl ester as substrate by fluorometric assay

By Ki is commonly meant a dissociation constant, usually derived from enzyme kinetics or from competition with a known ligand. Read a high Ki as a looser hold on the target. On to `COCO[C@@H](c1ccc(Br)cc1)[C@@H](Cn1ccnn1)c1ccccc1`, for which the Ki was 20 nM.

Turning to `COCO[C@@H](c1ccccc1)[C@@H](Cn1ccnn1)c1ccc(Br)cc1`, the affinity corresponds to a Ki of 111 nM.

`O[C@@H](c1ccc(F)cc1)[C@@H](Cn1ccnn1)c1ccccc1` returned a Ki of 330 nM.

The molecule `O[C@@H](c1ccccc1)[C@@H](Cn1ccnn1)c1ccc(Br)cc1` gave an inhibition constant (Ki) of 820 nM.

In the case of `CC(=O)O[C@@H](c1ccc(F)cc1)[C@@H](Cn1ccnn1)c1ccccc1`, the Ki is 110 nM.

For `CC(=O)O[C@@H](c1ccc(Br)cc1)[C@@H](Cn1ccnn1)c1ccccc1`, affinity was put at a Ki of 90 nM.

As to `CC(=O)O[C@@H](c1ccccc1)[C@@H](Cn1ccnn1)c1ccc(Br)cc1`, the Ki came to 237 nM.

As to `COCO[C@@H](c1ccc(F)cc1)[C@H](Cn1ccnn1)c1ccccc1`, the Ki was found to be 160 nM.

In turn, `COCO[C@@H](c1ccc(Br)cc1)[C@H](Cn1ccnn1)c1ccccc1` registered a Ki of 70 nM.

Regarding `COCO[C@@H](c1ccccc1)[C@H](Cn1ccnn1)c1ccc(Br)cc1`, affinity was put at a Ki of 20 nM.

The molecule `O[C@@H](c1ccc(F)cc1)[C@H](Cn1ccnn1)c1ccccc1` came in with a Ki of 200 nM.

`O[C@@H](c1ccccc1)[C@H](Cn1ccnn1)c1ccc(Br)cc1`: the Ki came to 841 nM.

In turn, `CC(=O)O[C@@H](c1ccc(F)cc1)[C@H](Cn1ccnn1)c1ccccc1` gave a Ki of 350 nM.

For `CC(=O)O[C@@H](c1ccccc1)[C@H](Cn1ccnn1)c1ccc(Br)cc1`, the Ki came to 647 nM.

For the molecule `COCO[C@@H](c1ccc(F)cc1)[C@@H](Cn1ccnn1)c1ccccc1`, the affinity corresponds to a Ki of 80 nM.
